Patent US20170030929A1, “DIAGNOSIS OF CHRONIC KIDNEY DISEASE BY QUANTITATIVE ANALYSIS OF POST-TRANSLATIONAL MODIFICATIONS OF PLASMA PROTEINS” (EXCORLAB GMBH, priority 2014, published 2017)

Columns and labels:
[1] = molecular target: albumin (Homo sapiens, UniProt P02768); conditions: literature references; cited from earlier work
[2] = molecular target: in-vitro guanidylated albumin (Homo sapiens, UniProt P02768); assay: Effect of in-vitro guanidylation on protein bound fraction of albumin; conditions: albumin 75 μmol l^−1, ligand 7.5 μmol l^−1; over time of guanidylation (0-48 h)
in-vitro guanidylated albumin, sequence (P02768 25-609): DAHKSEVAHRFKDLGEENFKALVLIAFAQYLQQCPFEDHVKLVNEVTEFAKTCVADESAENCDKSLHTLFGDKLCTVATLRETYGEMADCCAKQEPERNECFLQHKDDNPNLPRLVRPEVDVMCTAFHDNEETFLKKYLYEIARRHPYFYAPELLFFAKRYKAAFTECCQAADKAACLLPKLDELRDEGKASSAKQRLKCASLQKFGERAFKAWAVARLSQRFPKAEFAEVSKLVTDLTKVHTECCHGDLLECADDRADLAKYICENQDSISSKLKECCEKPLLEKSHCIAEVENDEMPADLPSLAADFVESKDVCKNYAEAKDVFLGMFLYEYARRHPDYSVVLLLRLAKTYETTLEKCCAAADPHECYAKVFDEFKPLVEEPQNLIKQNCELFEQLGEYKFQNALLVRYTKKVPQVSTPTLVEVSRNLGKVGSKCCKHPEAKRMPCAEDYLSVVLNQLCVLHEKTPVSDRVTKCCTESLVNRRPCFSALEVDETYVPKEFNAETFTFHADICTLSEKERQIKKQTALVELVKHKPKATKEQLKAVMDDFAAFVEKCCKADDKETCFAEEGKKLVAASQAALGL

albumin, sequence (P02768 25-609): as above

decrease of binding of albumin caused by in-vitro guanidylation [2]: 81%
Structure (SMILES): N[C@@H](Cc1c[nH]c2ccccc12)C(=O)O [L-tryptophan]
affinity to post-translational modified albumin as compared to indoxyl sulfate [1]: more than two orders of magnitude lower affinity
